# Measured values from patent US20240139210A1, “TREATMENT OF NF-KB-MEDIATED DISEASE” (ReveraGen BioPharma, Inc., priority 2020, published 2024).
# Legend:
# [1] = tested on: participants with DMD; experiment: VBP15-LTE prespecified safety evaluation: height percentile for age and BMI; assay type: in vivo, human
# Method: Standing height and weight were assessed at each study visit. Height z-score, body mass index (BMI; kg/m 2), and BMI z-score were calculated centrally. AE reporting was done per protocol in the vamorolone trials.
# Participants in the corticosteroid-treated CINRG DNHS group were treated for at least 18 months, but the total duration, dose, and regimens varied.
# (§1) Statistical analyses were done on paired longitudinal outcome data using an analysis of covariance (ANCOVA) approach with change from baseline (VBP15-002) to month 18 (midpoint of VBP15-LTE). Baseline response and age were included as covariates. For the vamorolone-treated participants, age was calculated as (date of informed consent minus birthdate)/365.25. For the DNHS participants, age was calculated as (date of baseline visit used minus birthdate)/365.25. The baseline visit for a DNHS participant was the first visit. […] Timed function tests were analyzed as velocity scores to limit the impact of participants who could not perform the test (velocity=0). Velocity measures are variance-stabilizing transformations, suppressing extreme raw outliers from raw values in seconds; these help with distributional assumptions of the statistical models/tests used. Raw data (seconds) are also reported. Velocity scores for TTSTAND (event/second), TTRW (meters/second), and TTCLIMB (event/second) were inputted as 0 at the first response missing due to inability to perform the test. All other data were observed values only, without imputation. No adjustments for multiplicity on inferential statistics were specified in the iSAP.
# [2] = tested on: participants with DMD; experiment: VBP15-003/VBP15-LTE open-label trials, motor outcomes over 18 months; assay type: in vivo, human; details: for TTCLIMB velocity, LS mean difference (SE), ANCOVA / TTSTAND velocity, LS mean difference (SE), ANCOVA / TTRW velocity, LS mean difference (SE), ANCOVA: vamorolone 18 months vs corticosteroid-naïve DNHS
# Description: Assessments of efficacy were motor outcomes (primary outcome: time to stand from supine [TTSTAND]; secondary outcomes: time to run/walk 10 meters [TTRW], time to climb four stairs [TTCLIMB], distance covered in 6-minute walk test [6MWT], and the North Star Ambulatory Assessment [NSAA]). 6MWT and NSAA were not assessed in most CINRG DNHS participants and were not compared to vamorolone-treated participants. According to standard operating procedures, clinical evaluators were trained to harmonize the CINRG vamorolone, CINRG DNHS, and CINRG prednisone studies. Reliability of these outcomes (percent coefficient of variation) has been reported for the VBP15-002/VBP15-003 studies. Assessments were done at baseline (VBP15-002 entry), 24 weeks (VBP15-003 last visit), and 18 months (VBP15-LTE midpoint assessment at 12 months).
# Only participants completing VBP15-002 and VBP15-003 were eligible to enroll in VBP15-LTE. Participants received vamorolone at 1 of 4 dose levels (0.25, 0.75, 2.0, or 6.0 mg/kg/day) and at the same dose level in both the 4-week VBP15-002 trial and the 24-week VBP15-003 trial. If participants, their families, and their physicians wished to continue vamorolone treatment upon exiting the VBP15-003 trial, they were offered participation in the 24-month long-term extension (VBP15-LTE). The last visit of the VBP15-003 trial was commensurate with the first visit of the VBP15-LTE trial. In all studies, study medication was provided as 4% flavored liquid suspension and was dosed according to body weight and given once daily in the morning with food.
# Vamorolone-treated participants were initially enrolled into VBP15-002 and VBP15-003 in 4 dose groups (0.25, 0.75, 2.0, and 6.0 mg/kg/day; groups A-D). Upon entering VBP15-LTE, vamorolone group A participants had 2 or 3 sequential dose escalations and were treated with 2.0 or 6.0 mg/kg/day for the last 3-9 months of the 18 months; group B participants had 1 or 2 dose escalations and were treated with 2.0 or 6.0 mg/kg/day for the last 9-11 months. Groups C and D were treated for 18 months at 2.0 or 6.0 mg/kg/day (S1 Fig).
# The current study is the first to evaluate the longer-term tolerability, efficacy, and safety of vamorolone in DMD. […] Given the variable timing of dose escalations, it was prespecified that initial analyses of drug-related efficacy and safety would be limited to those participants who had 18 months of treatment with 2.0 mg/kg/day vamorolone or more (dose group C+dose group D; n=23). Outcomes for these participants were compared to a group-matched cohort from the CINRG DNHS over 18 months (corticosteroid-naïve, n=19; corticosteroid-treated, n=68). Participants were matched for age and treatment period (±1 month), matching criteria were prespecified in the statistical analysis plan. Two independent statisticians carried out the matching.
# as §1, with “No adjustments for multiplicity on inferential statistics were specified in the iSAP.” left out
# [3] = 2.0 or 6.0 mg/kg/day for 18 months (groups C+D)
# [4] = vamorolone 18 months versus corticosteroid-naïve DNHS
# [5] = vamorolone 18 months vs corticosteroid-naïve participants
smiles,measurement,setting,value
"C[C@@H]1C[C@H]2[C@@H]3CCC4=CC(=O)C=C[C@]4(C)C3=CC[C@]2(C)[C@@]1(O)C(=O)CO [Vamorolone, 17α,21-dihydroxy-16α-methylpregna-1,4,9(11)-triene-3,20-dione]","Mean BMI z-score, 18-month value (SD)",[1]; [3],1.46 (0.62)
same,"Mean BMI z-score, change from baseline (SD)",[1]; [3],0.411 (0.615)
same,"Mean height percentile for age, 18-month value (SD)",[1]; [3],35.24 percentile
same,"Mean BMI z-score, change from baseline (SD)","[1]; 2.0 or 6.0 mg/kg/day for 18 months (groups C+D), listed as vamorolone",0.41
same,LS Mean change in height percentiles for age,"[1]; DMD children, N 22, 18 months treatment",+6.9
same,BMI change from baseline to 18 months of treatment,"[1]; original dose group B (0.75 mg/kg/day, escalated)",0.5 kg/m 2
same,BMI change from baseline to 18 months of treatment,[1]; original dose group C (2.0 mg/kg/day),1.11 kg/m 2
same,BMI change from baseline to 18 months of treatment,[1]; original dose group D (6.0 mg/kg/day),2.55 kg/m 2
same,"Mean BMI z-score, LS mean difference (SE), ANCOVA",[1]; [4],0.899 (0.204)
same,"Mean height percentile for age, LS mean difference (SE), ANCOVA",[1]; [4],6.72 (3.48) percentile
same,"TTCLIMB velocity, LS mean difference (SE), ANCOVA",[2],0.059 (0.026) event/second
same,"TTSTAND velocity, LS mean difference (SE), ANCOVA",[2],0.042 (0.024) event/second
same,"TTRW velocity, LS mean difference (SE), ANCOVA",[2]; listed as Valmorolone,0.286 (0.09) meters/second
same,"TTCLIMB velocity, LS mean difference (SE), ANCOVA",[2]; listed as vamorolone,0.059 event/second
same,"TTRW velocity, LS mean difference (SE), ANCOVA",[2]; listed as vamorolone,0.286 meters/second
same,"TTSTAND velocity, LS mean difference (SE), ANCOVA",[2]; listed as vamorolone,0.042 event/second
same,"TTCLIMB, LS mean difference, ANCOVA",[2]; [5],-0.34 s
same,"TTRW, LS mean difference, ANCOVA",[2]; [5],-0.84 s
same,"TTSTAND, LS mean difference, ANCOVA",[2]; [5],-1.15 s
